In assay [1] the test system is Glutamate receptor ionotropic, NMDA 2B (Homo sapiens), Q13224 [K234A]. The assay is described as follows: Inhibition of NR2B receptor ATD K234A mutant expressed in Xenopus oocytes assessed as NMDA current at 0.5 mM relative to control. It is filed as cell-based. The following applies: Oocyte.
The subject of assay [2] is Glutamate receptor ionotropic, NMDA 2B (Homo sapiens), Q13224 [A651T]. The assay is described as follows: Inhibition of NR2B receptor M3c A651T mutant expressed in Xenopus oocytes assessed as NMDA current at 0.5 mM relative to control. The format is cell-based. The conditions noted are these: Oocyte.
The target of assay [3] is Glutamate receptor ionotropic, NMDA 2B (Homo sapiens) (UniProt Q13224). In words: Inhibition of wild type NR2B receptor expressed in Xenopus oocytes assessed as NMDA current at 0.5 mM relative to control. It is filed as cell-based. The conditions noted are these: Oocyte.
Glutamate receptor ionotropic, NMDA 2B (Homo sapiens), sequence (Q13224 27-1484 limits assumed): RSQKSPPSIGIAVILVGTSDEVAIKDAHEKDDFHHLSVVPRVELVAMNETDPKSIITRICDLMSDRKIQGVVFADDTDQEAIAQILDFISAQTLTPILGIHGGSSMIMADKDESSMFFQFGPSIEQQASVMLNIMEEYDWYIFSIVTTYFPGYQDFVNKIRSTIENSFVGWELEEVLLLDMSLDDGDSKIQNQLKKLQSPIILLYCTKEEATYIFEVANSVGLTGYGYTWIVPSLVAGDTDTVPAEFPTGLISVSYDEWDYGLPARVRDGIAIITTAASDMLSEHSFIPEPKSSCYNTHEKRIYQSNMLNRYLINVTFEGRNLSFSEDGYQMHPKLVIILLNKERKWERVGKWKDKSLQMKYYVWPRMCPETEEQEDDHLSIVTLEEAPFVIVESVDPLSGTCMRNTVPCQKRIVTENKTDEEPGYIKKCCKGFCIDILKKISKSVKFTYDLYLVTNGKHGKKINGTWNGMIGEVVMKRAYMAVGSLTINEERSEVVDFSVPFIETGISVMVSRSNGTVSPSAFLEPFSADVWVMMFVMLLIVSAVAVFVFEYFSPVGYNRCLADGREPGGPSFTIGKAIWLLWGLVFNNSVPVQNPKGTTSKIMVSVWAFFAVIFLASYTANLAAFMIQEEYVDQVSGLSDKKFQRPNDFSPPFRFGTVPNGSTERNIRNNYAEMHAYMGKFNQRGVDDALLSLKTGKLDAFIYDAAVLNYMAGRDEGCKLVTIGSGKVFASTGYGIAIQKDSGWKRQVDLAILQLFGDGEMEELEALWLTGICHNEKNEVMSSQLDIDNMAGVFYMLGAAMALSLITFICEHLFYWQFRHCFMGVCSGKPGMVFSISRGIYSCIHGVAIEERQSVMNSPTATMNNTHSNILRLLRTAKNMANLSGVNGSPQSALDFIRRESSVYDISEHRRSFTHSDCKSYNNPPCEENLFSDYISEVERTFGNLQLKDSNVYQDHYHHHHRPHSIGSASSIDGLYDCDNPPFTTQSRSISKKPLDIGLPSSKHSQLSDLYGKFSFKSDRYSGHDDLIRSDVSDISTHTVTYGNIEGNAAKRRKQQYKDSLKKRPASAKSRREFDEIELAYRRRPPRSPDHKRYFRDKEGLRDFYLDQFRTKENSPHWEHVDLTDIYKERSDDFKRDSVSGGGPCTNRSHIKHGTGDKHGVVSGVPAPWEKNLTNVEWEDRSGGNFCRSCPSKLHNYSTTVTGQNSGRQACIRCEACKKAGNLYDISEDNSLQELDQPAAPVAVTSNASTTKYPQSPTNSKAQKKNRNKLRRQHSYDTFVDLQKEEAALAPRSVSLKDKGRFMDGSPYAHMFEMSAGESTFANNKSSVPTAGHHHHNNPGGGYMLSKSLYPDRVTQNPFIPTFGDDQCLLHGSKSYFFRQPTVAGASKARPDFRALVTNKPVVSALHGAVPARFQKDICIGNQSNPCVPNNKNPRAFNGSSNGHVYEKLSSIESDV
Assay [4] deals with Glutamate receptor ionotropic, NMDA 2B (Homo sapiens), Q13224 [E658A]. In words: Inhibition of NR2B receptor post-M3 E658A mutant expressed in Xenopus oocytes assessed as NMDA current at 0.5 mM relative to control. It is filed as cell-based. The conditions noted are these: Oocyte.
The subject of assay [5] is Glutamate receptor ionotropic, NMDA 2B (Homo sapiens), Q13224 [S548A]. The assay is described as follows: Inhibition of NR2B receptor Pre-M1 S548A mutant expressed in Xenopus oocytes assessed as NMDA current at 0.5 mM relative to control. It is filed as cell-based. The conditions noted are these: Oocyte.
For assay [6], the system named is Glutamate receptor ionotropic, NMDA 2B (Homo sapiens), Q13224 [E236A]. In words: Inhibition of NR2B receptor ATD E236A mutant expressed in Xenopus oocytes assessed as NMDA current at 0.5 mM relative to control. It is filed as cell-based. The conditions noted are these: Oocyte.
Glutamate receptor ionotropic, NMDA 2B (Homo sapiens), Q13224 [E236A], sequence (Q13224 whole entry E236A): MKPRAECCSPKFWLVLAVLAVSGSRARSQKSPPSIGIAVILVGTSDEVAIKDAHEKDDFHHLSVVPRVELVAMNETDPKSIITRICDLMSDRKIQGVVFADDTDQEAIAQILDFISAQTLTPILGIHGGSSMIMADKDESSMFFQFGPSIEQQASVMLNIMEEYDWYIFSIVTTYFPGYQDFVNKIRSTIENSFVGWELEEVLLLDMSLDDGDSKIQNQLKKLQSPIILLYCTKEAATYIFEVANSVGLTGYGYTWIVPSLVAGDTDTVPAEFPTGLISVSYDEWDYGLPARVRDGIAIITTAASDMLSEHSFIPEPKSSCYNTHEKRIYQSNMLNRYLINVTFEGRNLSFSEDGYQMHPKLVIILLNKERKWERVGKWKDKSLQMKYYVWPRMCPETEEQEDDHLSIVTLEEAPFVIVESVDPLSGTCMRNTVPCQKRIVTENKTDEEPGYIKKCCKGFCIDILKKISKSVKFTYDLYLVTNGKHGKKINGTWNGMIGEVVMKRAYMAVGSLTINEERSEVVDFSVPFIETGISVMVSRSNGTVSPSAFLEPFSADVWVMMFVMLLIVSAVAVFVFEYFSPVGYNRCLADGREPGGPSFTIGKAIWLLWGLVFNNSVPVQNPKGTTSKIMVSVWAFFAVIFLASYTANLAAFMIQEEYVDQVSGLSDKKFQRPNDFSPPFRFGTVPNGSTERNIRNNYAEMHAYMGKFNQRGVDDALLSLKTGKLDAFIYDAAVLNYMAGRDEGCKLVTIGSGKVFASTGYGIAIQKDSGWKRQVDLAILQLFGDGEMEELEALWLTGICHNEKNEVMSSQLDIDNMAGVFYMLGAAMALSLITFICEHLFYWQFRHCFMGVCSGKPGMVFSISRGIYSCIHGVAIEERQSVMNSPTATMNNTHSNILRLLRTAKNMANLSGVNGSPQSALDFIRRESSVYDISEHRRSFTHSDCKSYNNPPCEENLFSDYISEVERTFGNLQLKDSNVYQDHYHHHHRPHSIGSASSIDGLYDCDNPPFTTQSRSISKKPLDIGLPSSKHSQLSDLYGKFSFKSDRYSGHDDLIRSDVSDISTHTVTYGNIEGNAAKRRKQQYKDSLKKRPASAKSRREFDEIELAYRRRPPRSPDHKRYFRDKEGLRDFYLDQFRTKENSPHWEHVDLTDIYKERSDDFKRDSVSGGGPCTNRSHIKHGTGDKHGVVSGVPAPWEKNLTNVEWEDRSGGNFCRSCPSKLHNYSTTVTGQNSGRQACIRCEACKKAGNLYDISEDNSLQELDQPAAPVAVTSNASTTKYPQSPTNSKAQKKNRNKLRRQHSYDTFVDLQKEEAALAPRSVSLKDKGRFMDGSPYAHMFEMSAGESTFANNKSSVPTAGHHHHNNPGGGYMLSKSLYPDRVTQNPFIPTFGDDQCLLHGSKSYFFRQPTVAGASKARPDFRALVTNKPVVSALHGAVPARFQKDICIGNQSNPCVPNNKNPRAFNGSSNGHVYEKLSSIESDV
Assay [7] deals with Glutamate receptor ionotropic, NMDA 2B (Homo sapiens) (UniProt Q13224). In words: Binding affinity to NR2B receptor.
Assay [8] has as its system Glutamate receptor ionotropic, NMDA 2B (Homo sapiens), Q13224 [[…]]. In words: Binding affinity to NR2B receptor M3c T647A mutant.
Assay [9] deals with Glutamate receptor ionotropic, NMDA 2B (Homo sapiens), Q13224 [K234A]. In words: Binding affinity to NR2B receptor ATD K234A mutant.
Assay [10] concerns Glutamate receptor ionotropic, NMDA 2B (Homo sapiens), Q13224 [E236A]. In words: Binding affinity to NR2B receptor ATD E236A mutant.
Assay [11] can be described thus: Ratio of Kapp for wild type NR2B receptor to Kapp for NR2B receptor L643A/K234A mutant.
Assay [12] can be described thus: Ratio of Kapp for wild type NR2B receptor to Kapp for NR2B receptor T647A/K234A mutant.
A short description of assay [13]: Ratio of Kapp for wild type NR2B receptor to Kapp for NR2B receptor T647A/S645A mutant.
A short description of assay [14]: Ratio of Kapp for wild type NR2B receptor to Kapp for NR2B receptor M3c L643A mutant.
Assay [15] in a line: Ratio of Kapp for wild type NR2B receptor to Kapp for NR2B receptor M3c S645A mutant.
Assay [16] concerns Glutamate receptor ionotropic, NMDA 2B (Homo sapiens), Q13224 [N616A]. In words: Inhibition of NR2B receptor M2 N616A mutant expressed in Xenopus oocytes assessed as NMDA current at 0.5 mM relative to control. The format is cell-based. The following applies: Oocyte.
The subject of assay [17] is Glutamate receptor ionotropic, NMDA 2B (Homo sapiens), Q13224 [S645A,I641A]. In words: Binding affinity to NR2B receptor S645A/I641A mutant.
Assay [18] has as its system Glutamate receptor ionotropic, NMDA 2B (Homo sapiens), Q13224 [E106A]. In words: Inhibition of NR2B receptor ATD E106A mutant expressed in Xenopus oocytes assessed as NMDA current at 0.5 mM relative to control. It is filed as cell-based. The following applies: Oocyte.

Glutamate receptor ionotropic, NMDA 2B (Homo sapiens), Q13224 [K234A], sequence (Q13224 whole entry K234A): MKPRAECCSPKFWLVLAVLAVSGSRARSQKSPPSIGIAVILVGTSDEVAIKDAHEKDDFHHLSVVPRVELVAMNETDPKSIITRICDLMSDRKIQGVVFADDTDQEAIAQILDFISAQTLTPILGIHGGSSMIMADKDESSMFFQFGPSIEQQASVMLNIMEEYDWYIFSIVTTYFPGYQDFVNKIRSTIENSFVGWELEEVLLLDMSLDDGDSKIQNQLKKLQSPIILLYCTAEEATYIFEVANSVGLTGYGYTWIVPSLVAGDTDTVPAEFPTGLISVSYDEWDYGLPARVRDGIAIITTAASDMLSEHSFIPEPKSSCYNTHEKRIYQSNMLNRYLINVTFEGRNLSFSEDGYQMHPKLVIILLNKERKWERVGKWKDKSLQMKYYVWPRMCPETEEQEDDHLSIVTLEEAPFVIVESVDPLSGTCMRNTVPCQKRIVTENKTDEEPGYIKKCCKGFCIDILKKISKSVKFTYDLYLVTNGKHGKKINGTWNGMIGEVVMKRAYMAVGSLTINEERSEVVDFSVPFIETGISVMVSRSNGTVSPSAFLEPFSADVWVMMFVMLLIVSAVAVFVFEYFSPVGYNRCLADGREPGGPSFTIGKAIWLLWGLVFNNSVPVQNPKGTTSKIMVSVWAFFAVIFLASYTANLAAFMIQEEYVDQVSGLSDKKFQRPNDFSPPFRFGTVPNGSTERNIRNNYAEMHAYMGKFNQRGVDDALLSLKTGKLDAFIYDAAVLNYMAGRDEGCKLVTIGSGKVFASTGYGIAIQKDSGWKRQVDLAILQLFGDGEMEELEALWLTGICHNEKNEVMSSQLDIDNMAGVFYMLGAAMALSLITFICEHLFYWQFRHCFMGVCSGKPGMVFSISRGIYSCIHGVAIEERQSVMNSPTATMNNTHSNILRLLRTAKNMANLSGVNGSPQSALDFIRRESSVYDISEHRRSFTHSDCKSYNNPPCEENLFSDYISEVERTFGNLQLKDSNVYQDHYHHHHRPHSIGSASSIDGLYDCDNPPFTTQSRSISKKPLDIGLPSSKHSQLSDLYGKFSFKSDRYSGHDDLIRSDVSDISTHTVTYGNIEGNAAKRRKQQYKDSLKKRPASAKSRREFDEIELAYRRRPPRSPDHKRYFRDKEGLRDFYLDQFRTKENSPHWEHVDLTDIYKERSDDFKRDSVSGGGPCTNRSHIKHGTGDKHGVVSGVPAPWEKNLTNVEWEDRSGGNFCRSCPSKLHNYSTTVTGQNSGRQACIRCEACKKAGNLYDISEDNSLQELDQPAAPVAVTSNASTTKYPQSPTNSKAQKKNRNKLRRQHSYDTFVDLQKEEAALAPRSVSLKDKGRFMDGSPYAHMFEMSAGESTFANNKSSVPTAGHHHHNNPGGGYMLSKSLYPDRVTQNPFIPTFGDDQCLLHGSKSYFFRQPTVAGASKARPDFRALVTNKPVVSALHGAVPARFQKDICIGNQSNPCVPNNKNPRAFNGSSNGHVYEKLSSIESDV

Regarding `NC(=O)OCC(COC(N)=O)c1ccccc1`, the inhibition turned out to be 85% in [1]; 72% in assay [2]; 68% in assay [3]; 65% in [4]; 76% in [5]; 83% in assay [6]. Also, the inhibition in assay [16] turned out to be 72%; in assay [18], 74%. In addition, the Kapp in assay [7] came to 0.87 mM; in assay [8], 6.5 mM; in assay [9], 4.31 mM; in assay [10], 2.18 mM; in assay [17], 4.43 mM. Moreover, the Ratio Ki(app) in assay [11] stood at 7.3; in assay [12] it was 8; in assay [13] it was 8.1; in assay [14], 6.5; in [15], 4.9.

The record behind these values is ChEMBL document CHEMBL1144021, “Molecular determinants of the anticonvulsant felbamate binding site in the N-methyl-D-aspartate receptor” (J Med Chem, 2008).
